The values that follow are results of earlier work, collected in patent US20060009642A1, “Methods for the synthesis of substituted purines” (IRM LLC, a Delaware Limited Liability Company, priority 2001, published 2006).

This data set deals with cyclin-dependent kinase 1 (CDK1). Conditions: binds to the ATP-binding site; Arris et al., J. Med. Chem. 43, 2797 (2000).

In the case of `Nc1nc(OCC2CCCCC2)c2[nH]cnc2n1` [O6-cyclohexylmethylguanine], the “inhibition of CDK1, mode of inhibition” value is “competitive inhibitor”.
